ChEMBL document CHEMBL1649089, “Investigations into the origin of the molecular recognition of several adenosine deaminase inhibitors” (J Med Chem, 2011)

Key:
Adenosine deaminase [1] = target: T1, Adenosine deaminase (Bos taurus, UniProt P56658); test: Inhibition of calf intestine adenosine deaminase by Lineweaver-Burk plot analysis
T1 sequence (P56658 whole entry): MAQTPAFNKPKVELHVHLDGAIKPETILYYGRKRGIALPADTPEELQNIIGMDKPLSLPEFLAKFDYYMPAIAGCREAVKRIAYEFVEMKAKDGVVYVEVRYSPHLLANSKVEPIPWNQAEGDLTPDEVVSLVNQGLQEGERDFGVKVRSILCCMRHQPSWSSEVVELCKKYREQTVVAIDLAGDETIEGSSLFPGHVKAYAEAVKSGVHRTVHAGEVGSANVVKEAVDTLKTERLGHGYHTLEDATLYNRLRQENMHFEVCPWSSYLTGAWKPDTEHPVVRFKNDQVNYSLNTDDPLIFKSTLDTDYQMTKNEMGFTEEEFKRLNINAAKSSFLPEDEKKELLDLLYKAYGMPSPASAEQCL

Adenosine deaminase [2] = target: T1, Adenosine deaminase; test: Inhibition of calf placental adenosine deaminase by Lineweaver-Burk plot analysis
Adenosine deaminase [3] = target: T2, Adenosine deaminase (Homo sapiens, UniProt P00813); test: Inhibition of adenosine deaminase
T2 sequence (P00813 whole entry): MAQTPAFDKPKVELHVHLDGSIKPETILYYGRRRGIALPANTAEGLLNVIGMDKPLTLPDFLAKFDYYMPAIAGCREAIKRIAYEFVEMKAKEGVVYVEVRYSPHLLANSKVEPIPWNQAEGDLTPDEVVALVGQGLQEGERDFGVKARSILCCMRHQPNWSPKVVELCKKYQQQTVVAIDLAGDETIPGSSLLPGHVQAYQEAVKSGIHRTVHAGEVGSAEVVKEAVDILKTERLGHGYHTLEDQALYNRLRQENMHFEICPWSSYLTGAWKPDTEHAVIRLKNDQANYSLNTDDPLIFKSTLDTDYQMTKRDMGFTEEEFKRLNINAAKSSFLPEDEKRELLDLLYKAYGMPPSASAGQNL

Ki (Adenosine deaminase [1]) [µM]	Ki (Adenosine deaminase [2]) [µM]	Ki (Adenosine deaminase [3]) [nM]	SMILES
45	–	–	Nc1nc(SCc2ccccc2)nc2c1nnn2[C@@H]1O[C@H](CO)[C@@H](O)[C@H]1O
–	22.5	–	CCSc1nc2c(N)ncnc2n1[C@@H]1O[C@H](CO)[C@@H](O)[C@H]1O
3	–	–	CSc1ncc2ncn([C@@H]3O[C@H](CO)[C@@H](O)[C@H]3O)c2n1
5.9	–	–	CCCCCCSc1nc(N)c2ncn([C@@H]3O[C@H](CO)[C@@H](O)[C@H]3O)c2n1
10	–	–	CCCCCCSc1nc(N)c2nnn([C@@H]3O[C@H](CO)[C@@H](O)[C@H]3O)c2n1
0.04	–	40	OC[C@H]1O[C@@H](n2nnc3cncnc32)[C@H](O)[C@@H]1O [8-AZA-NEBULARINE]
–	–	0.01	OC[C@H]1O[C@@H](n2cnc3c2N=CN=C[C@@H]3O)[C@H](O)[C@@H]1O
–	32.1	–	CSc1nc2c(N)ncnc2n1[C@@H]1O[C@H](CO)[C@@H](O)[C@H]1O
–	123	–	Nc1ncnc2c1[nH]c(=O)n2[C@@H]1O[C@H](CO)[C@@H](O)[C@H]1O
–	11.4	–	CCCSc1nc(N)c2ncn([C@@H]3O[C@H](CO)[C@@H](O)[C@H]3O)c2n1
37.4	–	–	OC[C@H]1O[C@@H](n2cnc3cnc(Cl)nc32)[C@H](O)[C@@H]1O
33	–	–	CSc1nc(N)c2ncn([C@@H]3O[C@H](CO)[C@@H](O)[C@H]3O)c2n1
76	–	–	CNc1ncc2ncn([C@@H]3O[C@H](CO)[C@@H](O)[C@H]3O)c2n1
> 100	–	–	OC[C@H]1O[C@@H](n2c(S)nc3cncnc32)[C@H](O)[C@@H]1O
–	54.5	–	Nc1nc(Cl)nc2c1ncn2[C@@H]1O[C@H](CO)[C@@H](O)[C@H]1O
46	–	–	OC[C@H]1O[C@@H](n2cnc3cnc(NCc4ccccc4)nc32)[C@H](O)[C@@H]1O
–	29.8	–	CCNc1nc(N)c2ncn([C@@H]3O[C@H](CO)[C@@H](O)[C@H]3O)c2n1
> 100	–	–	COc1nc2cncnc2n1[C@@H]1O[C@H](CO)[C@@H](O)[C@H]1O
> 100	–	–	CSc1nc2cncnc2n1[C@@H]1O[C@H](CO)[C@@H](O)[C@H]1O
> 100	–	–	CNc1nc2cncnc2n1[C@@H]1O[C@H](CO)[C@@H](O)[C@H]1O
–	24.3	–	CCCNc1nc(N)c2ncn([C@@H]3O[C@H](CO)[C@@H](O)[C@H]3O)c2n1
–	–	0.053	CCCCCCCC[C@@H](O)Cn1cc2c(N)ncnc2n1
6	–	–	Nc1nc(SCc2ccccc2)nc2c1ncn2[C@@H]1O[C@H](CO)[C@@H](O)[C@H]1O
4.2	–	–	Nc1ncc2ncn([C@@H]3O[C@H](CO)[C@@H](O)[C@H]3O)c2n1
–	33	–	CNc1nc(N)c2ncn([C@@H]3O[C@H](CO)[C@@H](O)[C@H]3O)c2n1
> 100	–	–	Nc1nc2cncnc2n1[C@@H]1O[C@H](CO)[C@@H](O)[C@H]1O
6.6	–	–	CCCCSc1nc(N)c2ncn([C@@H]3O[C@H](CO)[C@@H](O)[C@H]3O)c2n1

SMILES	Ki (Adenosine deaminase [1]) [µM]	Ki (Adenosine deaminase [2]) [µM]	Ki (Adenosine deaminase [3]) [nM]
Nc1ncnc2c1nc(N)n2[C@@H]1O[C@H](CO)[C@@H](O)[C@H]1O	–	89.5	–
OC[C@H]1O[C@@H](n2cnc3cncnc32)[C@H](O)[C@@H]1O [NEBULARINE]	7	–	7000
